Measured values reported in patent US9675642B2, “Engineered dendritic cells and uses for the treatment of cancer” (Intrexon Corporation, priority 2007, dated 2017).

Assays:
GL261 gliomas = assay: Intracranial GL261 glioma survival, i.t. transduced DC plus i.p. RG-115830; format: in vivo, mice; settings: at 50 days; DC expressing IFN-alpha and IL-12 under RTS, RG-115830 intra-peritoneal
Source text: Abbreviations in this figure are as follows: Ad-IFNa is Adenoviral vector constitutively expressing IFN-alpha; Ad-RTS-IFNa is Adenoviral vector encoding IFN-alpha under RTS control; Ad-RTS-IFNa no ligand is Adenoviral vector containing RTS and IFN-alpha where no activator ligand was present; Ad-IFNa/IL-12 corresponds to DC transduced with Adenoviral vectors encoding IFN-alpha and IL-12; and Ad-RTS-IFNa/IL-12 corresponds to DC transduced with two Adenoviral vectors encoding IFN-alpha and IL-12 under RTS control.
In this example, dendritic cells were isolated from bone marrow, transduced with the Adenoviral constructs depicted in FIG. 7, and mice bearing syngeneic intracranial GL261 gliomas were intratumorally injected with engineered dendritic cells; and RG-115830 was injected intra-peritoneal. […] The data reveal that ligand induced expression of IFN-alpha and IL-12 through activation of the RTS with RG-115830 ligand promoted 75 percent survival at 50 days of GL261 glioma mice; as compared to IFN-alpha expression alone. Furthermore, the control provided by the RheoSwitch and ligand promoted enhanced survival.

[1] = system: DC infected with rAd.RheoIL12 (DC.RheoIL12); assay: IL-12p70 secretion by adenovirus-infected murine BM-derived DC (ELISA); format: cell-based, mouse
Protocol: DCs were generated from murine bone marrow as previously described (Tatsumi et al., 2003). Briefly, wild-type or EGFP Tg mouse BM was cultured in CM supplemented with 1000 units/ml recombinant murine granulocyte/macrophage colony-stimulating factor and recombinant mIL-4 (Peprotech, Rocky Hill, N.J.) at 37° C. in a humidified, 5% CO2 incubator for 7 days. CD11c^+ DC were then isolated using specific MACSTM beads, per the manufacturer's protocol (Miltenyi Biotec, Auburn, Calif.). CD11c^+ DC produced in this manner were >95% pure based on morphology and co-expression of the CD11b, CD40, CD80, and class I and class II MHC antigens.
Day 7 cultured DC were untreated, were infected with recombinant Ads encoding murine IL-12p70 driven off a constitutive (rAd.cIL12) or inducible (rAd.RheoIL12) promoter, or were infected with mock, control vector rAdψ5, over a range of MOIs. At various time points after this (0-48 h), DC were then cultured in the absence or presence of an activating ligand (10-200 μg/ml) for an additional 24 h prior to analysis of IL-12p70 secretion using a specific ELISA kit (BDPharMingen, San Diego, Calif.; lower level of detection=62.5 pg/ml). […] Alternatively, after 48 h, infected DC were harvested and analyzed for phenotype and for production of IL-12p70 using the ELISA kit (BD-PharMingen, San Diego, Calif.), with a lower level of detection of 62.5 pg/ml. […]

B16 melanoma [2] = assay: Established s.c. B16 melanoma, i.t. DC plus i.p. RG-115830; format: in vivo, C57BL/6 mice; settings: RG-115830 alone, or DC.RheoIL12 in the absence of RG-115830
Protocol: B6 mice received subcutaneous injection of 1×10^5 B16 melanoma cells in the right flank on day 0. On day 7, tumors reached a size of approximately 20-30 mm^2 and mice were treated with i.t. injections of PBS or 1×10^6 control vs. adenoviral transduced (MOI=100) DC in a total volume of 50 μl of PBS. Mice also received i.p. injections of 200 μg RG-115830 (in 50 μl DMSO) vs. DMSO carrier control that were initiated at 0 h, 24 h or 48 h post-DC administration, as indicated. After initiation, mice received a total of 5 consecutive daily intraperitoneal injections of RG-115830 at this dose. In additional experiments, ligand was administered beginning on the day of DC injection and then terminated 1, 3 or 5 days post-DC injection to discern whether early cessation of IL-12p70 transgene promotion reduced the therapeutic benefits of this approach. In all cases, tumor size was assessed every 3 or 4 days and recorded in mm^2 by determining the product of the largest perpendicular diameters measured by vernier calipers. Data are reported as the average tumor area±SD. All animal cohorts contained 5 mice/group.
B16 melanoma cells (1×10^5) were injected s.c. in the […] flank of syngenic H-2^b B6 mice and allowed to establish. On day 7, mice were randomized into cohorts of 5 animals each, with a mean cohort tumor size of approximately 20-30 mm^2. […]

B16 melanoma [3] = assay: DC dose and duration of ligand administration in B16 melanoma; format: in vivo, B6 mice
Protocol: Tumor bearing mice were given a single intratumoral injection of AdDCs at doses of 10^5, 10^6, and 10^7 cells and daily i.p. injection of Activating Ligand at a single dose of 30 mg/kg/day for 6 days or 13 days beginning on the day of the injection of 10^7 cells. […] There was no effect of the Activating Ligand alone (without AdDCs) on tumor growth.
In a similar experiment to FIG. 12, the Activating Ligand was administered by oral gavage for 9 and 12 days. The anti-tumor dose response with an oral formulation of the Activating Ligand at different doses in Labrasol was assessed.
B16 melanomas were established s.c. for 7 days in the right flanks of 5 syngeneic B6 mice. On day 7, DC.SP1-IL-12 (bone marrow derived DC infected at an MOI of 100 using the SP1 optimal switch) were injected intratumorally (i.t.) at doses of 10E5, 10E6 or 10E7. RG-115932 was provided by i.p. injection beginning on the day of DC injection (and daily thereafter for either 6 days or 13 days). Each cohort contained 5 animals, with tumor growth monitored every 3-4 days and reported as mean size (mm squared based on the product of orthogonal measurements). Individual animal weights were also assessed at the time of tumor measurements (FIG. 13). All animals rendered free of disease by any therapy were rechallenged on day 50 (post-initial B16 tumor inoculation) with 10E5 B16 melanoma cells on the opposite flank (left flank) of the original tumor and with 10E5 MC38 colon carcinoma cells on the right flank. Tumor growth was monitored every 3-4 days and compared against growth observed in naïve (untreated) animals (see FIG. 12).

[4] = system: human and mouse cell lines and primary dendritic cells transduced with recombinant adenoviral vector carrying the genes for IL12; assay: IL12 induction in cell lines and primary DC transduced with IL12 adenoviral vector; format: cell-based; settings: in vitro
[5] = system: mouse dendritic cells transduced with Ad-RTS-mIL-12; assay: Activator Drug dose-dependent IL-12 expression in mouse DC transduced with Ad-RTS-mIL-12; format: cell-based; settings: varying doses of Activator Drug
B16 melanomas = assay: Ligand route/dose comparison with i.t. DC.SP1-IL12 in B16 melanoma; format: in vivo, B6 mice
Protocol: B16 melanomas were established s.c. for 7 days in the right flanks of syngenic B6 mice. On day 7, 10^6 DC.SP1-IL12 (optimal switch identified in FIG. 10 comparison) were injected intratumorally (i.t.). Activating ligand (RG-115932) was provided either as an injection i.p., via oral gavage in Labrasol, or via drug-containing chow provided ad libitum beginning on the day preceding DC injection (and daily thereafter for 6 days). Each cohort contained 5 animals, with tumor growth monitored every 3-4 days and reported as mean size (mm^2 based on the product of orthogonal measurements). The treatment for each cohort is described below.

RTS = assay: Activation of the RTS by ligand enantiomer; settings: R enantiomer versus racemic mixture
Protocol: DC-SP1 i.t. therapy using i.p. administered ligand yielded a clear ligand dose-tumor inhibition response pattern, with optimal anti-tumor effects at ligand doses >30 mg/kg/day. […] 20-22.5 mg/kg/day of the active enantiomer. […] The availability of oral administration of the ligand would ease the burden of the treatment on patients.
The recombinant DNA used as the recombinant adenoviral vector allows the expression of human IL-12 under the control of the RheoSwitch® Therapeutic System (RTS). The RTS comprises a bicistronic message expressed from the human Ubiquitin C promoter and codes for two fusion proteins: Gal4-EcR and VP16-RXR. Gal4-EcR is a fusion between the DNA binding domain (amino acids 1-147) of yeast Gal4 and the DEF domains of the ecdysone receptor from the insect Choristoneura fumiferana. […] VP16-RXR is a fusion between the transcription activation domain of HSV-VP16 and the EF domains of a chimeric RXR derived from human and locust sequences. […]

[6] = system: human dendritic cells transduced with adenoviral vector Ad-RTS-mIL-12; assay: IL-12 production by human DC transduced with Ad-RTS-mIL-12; format: cell-based; settings: 3 hour viral adsorption at MOI of 500
Source text: The activator drug (“AD” or “activating ligand”) induced IL-12 expression in these transduced human dendritic cells.

SMILES	survival (GL261 gliomas)	RG-115830 concentration for optimal infected DC production of IL-12p70 ([1]; MOI of 100)	IL-12p70 production after delayed provision of RG-115830 ([1]; delayed for up to 48 h compared to 0 h timepoint)	therapeutic benefit (B16 melanoma [2])	tumor regression (B16 melanoma [3]; 13 days in a row with 10^7 dendritic cells)	suppression of tumor growth, 13 days instead of 6 days of ligand (B16 melanoma [3]; i.p. 30 mg/kg/day with AdDCs)	anti-tumor dose response, oral ligand (B16 melanoma [3]; oral gavage in Labrasol for 9 and 12 days)	oral dose with the greatest responses (B16 melanoma [3]; orally for 12 days, Labrasol)	tumor growth, ligand alone (B16 melanoma [3]; without AdDCs)	IL12 expression [4]	IL-12 production [5]	efficacy by route of ligand administration (B16 melanomas; DC-SP1 i.t. therapy, ligand 30 mg/kg/day)	ligand dose giving optimal anti-tumor effects (B16 melanomas; DC-SP1 i.t. therapy, ligand i.p.)	efficacy by route in mouse melanoma model (B16 melanomas; DCs transduced with murine IL-12 under RTS)	B16 tumor growth, ligand alone (B16 melanomas; no DC, any dose or any route)	activation of the RTS (RTS)	IL-12 expression [6]
CCCC(N(NC(=O)c1cccc(OC)c1CC)C(=O)c1cc(C)cc(C)c1)C(C)(C)C (centres unmarked) [RG-115830, 3,5-Dimethyl-benzoic acid N-(1-tert-butyl-butyl)-N′-(2-ethyl-3-methoxy-benzoyl)-hydrazide]	75%	50 to 200 µg/mL	did not result in any significantly reduced production of IL-12p70	failed to yield any therapeutic benefit													
CCC[C@@H](N(NC(=O)c1cccc(OC)c1CC)C(=O)c1cc(C)cc(C)c1)C(C)(C)C [RG-115932, (R)-3,5-Dimethyl-benzoic acid N-(1-tert-butyl-butyl)-N′-(2-ethyl-3-methoxy-benzoyl)-hydrazide]					effective in causing tumor regression over a 25 day period	significantly more robust suppression of tumor growth	dose dependent anti-tumor effect	50 mg/kg/day	no effect	induction of IL12 expression in response to the activator drug in a dose dependent way	produced IL-12 in a dose dependent manner	equally effective if ligand is administered by i.p. injection, oral gavage, or diet admix	> 30 mg/kg/day	effective in intraperitoneal and oral routes	had no impact on B16 tumor growth	capable of activating the RTS	induced IL-12 expression in these transduced human DCs
